What was measured:
hENPP2 [1] = target: T1, hENPP2 (UniProtKB/SwissProt Sequence ref Q13822) (Homo sapiens (Human), UniProt Q13822); experiment: LPC hENPP2 assay (choline release, LPC as substrate); assay type: biochemical
Outline: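 Detection is coupled: choline oxidase produces peroxide, which HRP uses to form quinoneimine dye from TOOS and 4-aminoantipyrine, read at 555 nm. The reaction is stopped with 20 mM EGTA in the developer mix, then incubated 30 min at room temperature; inhibition lowers signal.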

hENPP2 [2] = target: T1, hENPP2; experiment: FS3 hENPP2 assay (fluorogenic substrate FS-3); assay type: biochemical; settings: hENPP2, FS-3 as substrate
Outline: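 Compound dilutions (1/5 steps, top concentration as added 20 μM) were preincubated 30 min at room temperature with hENPP2 (0.4 or 0.64 μg/mL final) in pH 8.0 Tris buffer containing NaCl, KCl, MgCl2, CaCl2 and 0.1% fatty-acid-free BSA. FS-3 (0.75 μM as added) was then hydrolysed for 30 min at 30 °C, and fluorescence was read at 485/520 nm.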

Row | IC50 (hENPP2 [1]) | IC50 (hENPP2 [2]) | Structure (SMILES)
1 | 500 to 1000 nM | 0.01 to 25 nM | CCc1nc2ccc(C3CCN(CC(=O)N4CC(O)C4)CC3)nn2c1N(C)c1cccc(-c2ccc(F)cc2)n1 [Cpd 214, 2-(4-(2-ethyl-3-((6-(4-fluorophenyl)pyridin-2-yl)(methyl)amino)imidazo[1,2-b]pyridazin-6-yl)piperidin-1-yl)-1-(3-hydroxyazetidin-1-yl)ethanone]
2 | > 1000 nM | 0.01 to 25 nM | CN(c1nc(-c2ccc(F)cc2)cs1)c1c(CCCO)nc2ccc(C3CCN(S(C)(=O)=O)CC3)nn12 [Compound 200, 3-(3-((4-(4-fluorophenyl)thiazol-2-yl)(methyl)amino)-6-(1-(methylsulfonyl)piperidin-4-yl)imidazo[1,2-b]pyridazin-2-yl)propan-1-ol]
3 | 100 to 500 nM | 0.01 to 25 nM | CCc1nc2ccc(C3CCN(CC(=O)N4CC(O)C4)CC3)nn2c1N(C)c1nccc(-c2ccc(F)cc2)n1 [Cpd 215, 2-(4-(2-ethyl-3-((4-(4-fluorophenyl)pyrimidin-2-yl)(methyl)amino)imidazo[1,2-b]pyridazin-6-yl)piperidin-1-yl)-1-(3-hydroxyazetidin-1-yl)ethanone]
4 | > 1000 nM | 0.01 to 25 nM | CCc1nc2ccc(N3CCC(C(N)=O)CC3)nn2c1N(C)c1nc(-c2ccc(F)cc2)cs1 [Cpd 98, 1-(2-ethyl-3-((4-(4-fluorophenyl)thiazol-2-yl)(methyl)amino)imidazo[1,2-b]pyridazin-6-yl)piperidine-4-carboxamide]
5 | 500 to 1000 nM | 0.01 to 25 nM | CCc1nc2ccc(C3CCN(CC(=O)N(C)C)CC3)nn2c1N(C)c1nc(-c2ccc(F)cc2)cs1 [Cpd 202, 2-(4-(2-ethyl-3-((4-(4-fluorophenyl)thiazol-2-yl)(methyl)amino)imidazo[1,2-b]pyridazin-6-yl)piperidin-1-yl)-N,N-dimethylacetamide]
6 | 100 to 500 nM | 0.01 to 25 nM | CCc1nc2ccc(N3CCN(CC(=O)N4CCCC4)[C@H](CO)C3)nn2c1N(C)c1nc(-c2ccc(F)cc2)cs1 [Compound 64, (S)-2-(4-(2-ethyl-3-((4-(4-fluorophenyl)thiazol-2-yl)(methyl)amino)imidazo[1,2-b]pyridazin-6-yl)-2-(hydroxymethyl)piperazin-1-yl)-1-(pyrrolidin-1-yl)ethanone]
7 | 100 to 500 nM | 0.01 to 25 nM | CCc1nc2ccc(N3CCN(CC(=O)N(C)C)CC3)nn2c1N(C)c1nc(-c2ccc(F)cc2)c(CO)s1 [Cpd 43, 2-(4-(2-ethyl-3-((4-(4-fluorophenyl)-5-(hydroxymethyl)thiazol-2-yl)(methyl)amino)imidazo[1,2-b]pyridazin-6-yl)piperazin-1-yl)-N,N-dimethylacetamide]
8 | > 1000 nM | 25 to 50 nM | CCc1nc2ccc(N3CCCC(O)C3)nn2c1N(C)c1nc(-c2ccc(F)cc2)cs1 (stereo not drawn) [Cpd 91, 1-(2-ethyl-3-((4-(4-fluorophenyl)thiazol-2-yl)(methyl)amino)imidazo[1,2-b]pyridazin-6-yl)piperidin-3-ol]
9 | > 1000 nM | 0.01 to 25 nM | CCc1nc2ccc(N3CCC(CO)CC3)nn2c1N(C)c1nc(-c2ccc(F)cc2)cs1 [Cpd 93, (1-(2-ethyl-3-((4-(4-fluorophenyl)thiazol-2-yl)(methyl)amino)imidazo[1,2-b]pyridazin-6-yl)piperidin-4-yl)methanol]
10 | 100 to 500 nM | 0.01 to 25 nM | CCc1nc2ccc(N3CCN(CCNC(C)=O)CC3)nn2c1N(C)c1nc(-c2ccc(F)cc2)cs1 [Cpd 57, N-(2-(4-(2-ethyl-3-((4-(4-fluorophenyl)thiazol-2-yl)(methyl)amino)imidazo[1,2-b]pyridazin-6-yl)piperazin-1-yl)ethyl)acetamide]
11 | > 1000 nM | 0.01 to 25 nM | CN(c1nc(-c2ccc(F)cc2)cs1)c1c(CC#N)nc2ccc(C3=CCN(S(C)(=O)=O)CC3)nn12 [Compound 196, 2-(3-((4-(4-fluorophenyl)thiazol-2-yl)(methyl)amino)-6-(1-(methylsulfonyl)-1,2,3,6-tetrahydropyridin-4-yl)imidazo[1,2-b]pyridazin-2-yl)acetonitrile]
12 | > 1000 nM | 0.01 to 25 nM | CCc1nc2ccc(N3CCC(CO)C3)nn2c1N(C)c1nc(-c2ccc(F)cc2)cs1 (stereo not drawn) [Cpd 143, (1-(2-ethyl-3-((4-(4-fluorophenyl)thiazol-2-yl)(methyl)amino)imidazo[1,2-b]pyridazin-6-yl)pyrrolidin-3-yl)methanol]
13 | > 1000 nM | 25 to 50 nM | CCc1nc2ccc(N3CCCC(CN)C3)nn2c1N(C)c1nc(-c2ccc(F)cc2)cs1 (stereo not drawn) [Cpd 101, N-(6-(3-(aminomethyl)piperidin-1-yl)-2-ethylimidazo[1,2-b]pyridazin-3-yl)-4-(4-fluorophenyl)-N-methylthiazol-2-amine]
14 | > 1000 nM | 0.01 to 25 nM | CCc1nc2ccc(N3CCC(NC(=O)OC(C)(C)C)CC3)nn2c1N(C)c1nc(-c2ccc(F)cc2)cs1 [Cpd 81, tert-butyl 1-(2-ethyl-3-((4-(4-fluorophenyl)thiazol-2-yl)(methyl)amino)imidazo[1,2-b]pyridazin-6-yl)piperidin-4-ylcarbamate]
15 | > 1000 nM | 0.01 to 25 nM | CCc1nc2ccc(N3CCC(NS(C)(=O)=O)C3)nn2c1N(C)c1nc(-c2ccc(F)cc2)cs1 (stereo not drawn) [Cpd 137, N-(1-(2-ethyl-3-((4-(4-fluorophenyl)thiazol-2-yl)(methyl)amino)imidazo[1,2-b]pyridazin-6-yl)pyrrolidin-3-yl)methane-sulfonamide]
16 | > 1000 nM | 50 to 100 nM | CCc1nc2ccc(N3CCC(S(=O)(=O)NC4CC4)CC3)nn2c1N(C)c1nc(-c2ccc(F)cc2)cs1 [Cpd 114, N-cyclopropyl-1-(2-ethyl-3-((4-(4-fluorophenyl)thiazol-2-yl)(methyl)amino)imidazo[1,2-b]pyridazin-6-yl)piperidine-4-sulfonamide]
17 | > 1000 nM | 0.01 to 25 nM | CCc1nc2ccc(N3CC4CN(C(=O)OC(C)(C)C)CC4C3)nn2c1N(C)c1nc(-c2ccc(F)cc2)cs1 (stereo not drawn) [Cpd 122, tert-butyl 5-(2-ethyl-3-((4-(4-fluorophenyl)thiazol-2-yl)(methyl)amino)imidazo[1,2-b]pyridazin-6-yl)hexahydro-pyrrolo[3,4-c] pyrrole-2(1H)-carboxylate]
18 | > 1000 nM | 0.01 to 25 nM | CCc1nc2ccc(N3CCCC(CO)C3)nn2c1N(C)c1nc(-c2ccc(F)cc2)cs1 (stereo not drawn) [Cpd 94, (1-(2-ethyl-3-((4-(4-fluorophenyl)thiazol-2-yl)(methyl)amino)imidazo[1,2-b]pyridazin-6-yl)piperidin-3-yl)methanol]
19 | 500 to 1000 nM | 0.01 to 25 nM | CCc1nc2ccc(N3CCC(N4CCOCC4)CC3)nn2c1N(C)c1nc(-c2ccc(F)cc2)cs1 [Cpd 109, N-(2-ethyl-6-(4-morpholino-piperidin-1-yl)imidazo[1,2-b]pyridazin-3-yl)-4-(4-fluorophenyl)-N-methylthiazol-2-amine]
20 | > 1000 nM | 0.01 to 25 nM | CCc1nc2ccc(N3CCCC(C(N)=O)C3)nn2c1N(C)c1nc(-c2ccc(F)cc2)cs1 (stereo not drawn) [Cpd 99, 1-(2-ethyl-3-((4-(4-fluorophenyl)thiazol-2-yl)(methyl)amino)imidazo[1,2-b]pyridazin-6-yl)piperidine-3-carboxamide]
21 | > 1000 nM | 0.01 to 25 nM | CCc1nc2ccc(N3CC(NC(=O)OC(C)(C)C)C3)nn2c1N(C)c1nc(-c2ccc(F)cc2)cs1 [Cpd 154, [1-(2-Ethyl-3-{[4-(4-fluoro-phenyl)-thiazol-2-yl]-methyl-amino}-imidazo[1,2-b]pyridazin-6-yl)-azetidin-3-yl]-carbamic acid tert-butyl ester]
22 | > 1000 nM | 0.01 to 25 nM | CCc1nc2ccc(N3CCC(N)CC3)nn2c1N(C)c1nc(-c2ccc(F)cc2)cs1 [Cpd 82, N-(6-(4-aminopiperidin-1-yl)-2-ethylimidazo[1,2-b]pyridazin-3-yl)-4-(4-fluorophenyl)-N-methylthiazol-2-amine]
23 | > 1000 nM | 0.01 to 25 nM | CCc1nc2ccc(N3CCCC(CNC(=O)OC(C)(C)C)C3)nn2c1N(C)c1nc(-c2ccc(F)cc2)cs1 (stereo not drawn) [Cpd 100, [1-(2-Ethyl-3-{[4-(4-fluoro-phenyl)-thiazol-2-yl]-methyl-amino}-imidazo[1,2-b]pyridazin-6-yl)-piperidin-3-ylmethyl]-carbamic acid tert-butyl ester]
24 | > 1000 nM | 0.01 to 25 nM | CN(c1nc(-c2ccc(F)cc2)cs1)c1c(CO)nc2ccc(C3=CCN(S(C)(=O)=O)CC3)nn12 [Compound 195, (3-((4-(4-fluorophenyl)thiazol-2-yl)(methyl)amino)-6-(1-(methylsulfonyl)-1,2,3,6-tetrahydropyridin-4-yl)imidazo[1,2-b]pyridazin-2-yl)methanol]
25 | > 1000 nM | 0.01 to 25 nM | CCc1nc2ccc(N3CCN(C(=O)C4CCCO4)CC3)nn2c1N(C)c1nc(-c2ccc(F)cc2)cs1 (stereo not drawn) [Cpd 47, (4-(2-ethyl-3-((4-(4-fluorophenyl)thiazol-2-yl)(methyl)amino)imidazo[1,2-b]pyridazin-6-yl)piperazin-l-yl)(tetrahydrofuran-2-yl)methanone]
26 | 500 to 1000 nM | 0.01 to 25 nM | CCc1nc2cnc(N3CCN(CC(=O)NC)CC3)cn2c1N(C)c1nc(-c2ccc(F)cc2)c(C#N)s1 [Cpd 9, 2-(4-(3-((5-cyano-4-(4-fluorophenyl)thiazol-2-yl)(methyl)amino)-2-ethylimidazo[1,2-a]pyrazin-6-yl)piperazin-1-yl)-N-methylacetamide]
27 | > 1000 nM | 0.01 to 25 nM | CCc1nc2ccc(N3CCC(N4CCSCC4)C3)nn2c1N(C)c1nc(-c2ccc(F)cc2)cs1 (stereo not drawn) [Cpd 131, N-(2-ethyl-6-(3-thiomorpholino-pyrrolidin-1-yl)imidazo[1,2-b]pyridazin-3-yl)-4-(4-fluorophenyl)-N-methylthiazol-2-amine]
